Data published in ChEMBL document CHEMBL3085729, “Total synthesis of schizocommunin and revision of its structure” (J Nat Prod, 2013).

How the values were obtained:
A549 = assay: Antiproliferative activity against human A549 cells after 48 hrs; assay type: functional, cell-based; details: A549, 48 h
HeLa = assay: Antiproliferative activity against human HeLa cells after 48 hrs; assay type: functional, cell-based

| Structure (SMILES) | IC50 (A549) [µM] | IC50 (HeLa) [µM] |
| --- | --- | --- |
| O=C1Nc2ccccc2/C1=C/c1nc2ccccc2c(=O)[nH]1 | > 100 | 15.2 |
| O=C1Nc2ccccc2/C1=C\c1n[nH]c2ccccc2c1=O | > 100 | > 100 |
| COc1c(/C=C2/C(=O)Nc3ccccc32)nnc2ccccc12 | > 100 | 19.6 |
| CC(=O)N1C(=O)/C(=C/c2nnc3ccccc3c2Cl)c2ccccc21 | > 100 | 28.8 |
| O=C1Nc2ccccc2/C1=C\c1nnc2ccccc2c1Cl | 93.3 | 7.8 |
